According to patent US20060135494A1, “Methods of treating injuries of the nervous system associated with hemorrhage” (priority 2002, published 2006):

Key:
Format in all cases: in vivo
Bcl-2, Bcl-xL, Bax = assay: Bcl-2 family protein (immunoblot) and mRNA (RT-PCR) in ICH rat brain; conditions: TUDCA 10-200 mg/kg bw, ipsilateral hemisphere
Description: All animals received humane care in compliance with the institute's guidelines as outlined in “Guide for the Care and Use of Laboratory Animals” prepared by the National Academy of Sciences and published by the National Institutes of Health (NIH publication no. 86-23, revised 1985). Female Sprague-Dawley rats (250-300 grams (g); Harlan Sprague-Dawley, Inc., Indianapolis, Ind.) were anesthesized with an intramuscular injection of a mixture of ketamine and xylazine and set in supine in a Kopf headholder. The right carotid artery, external and internal branches, was exposed and the distal end of the external carotid freed and retracted to line with the internal carotid. A PE-10 polyethylene tube (Becton-Dickinson, Sparks, Md.) was then introduced from the external into the internal carotid artery, and the former was ligated to hold the tube. TUDCA (Calbiochem-Novabiochem Corp., San Diego, Calif.) was dissolved in phosphate buffer, pH 7.4 at […] milligrams per milliliter (mg/ml). Saline or TUDCA solution (1 milliliter per kilogram body weight (ml/kg bw)) were injected directly into the internal carotid artery, within 5 minutes. Different concentrations of TUDCA (10, 50, 100, and 200 mg/kg bw) were administered 1 hour prior to, or 1, 3, and 6 hours after collagenase injection. The polyethylene tube was finally removed, the end of the external carotid artery cauterized, and the wound closed. To induce stroke injury, the animals were placed in a stereotaxic apparatus and ICH induced by collagenase infusion (Rosenberg et al., Stroke 1990;21:801-807 and Chesney et al., Stroke 1995;26:312-316). In brief, a midline incision was made through the scalp to expose the skull. […] (0.5 microliters per minute (μL/min)) of saline containing 0.5 unit (U) bacterial collagenase (type VII; Sigma Chemical Co., St. Louis, Mo.) was made stereotaxically into the striatum with a 10-μl Hamilton syringe at the following coordinates: 0.4 millimeter (mm) anterior and 3.0 mm lateral to bregma and 5.0 mm ventral to the cortical surface. Once the infusion was complete, the Hamilton syringe was left in place for 3 minutes. Body temperature was maintained at 37° C. with a CMA/150 temperature controller throughout the surgery. The rats recovered from surgery in a cage containing food and heated by an incandescent light bulb. Neurological testing was performed at 2 days after induction of ICH. The animals were then sacrificed, and the brains removed and frozen at −70° C. for either serial cryostat sectioning, or RNA and protein extraction. In a subset of animals, serum and brain samples were collected for bile acid analysis.
Changes in Bcl-2 family expression were determined by RT-PCR. Total RNA was extracted from brain tissue using the TRIZOL reagent from Life Technologies, Inc. (Grand Island, N.Y.). For RT-PCR, 5 μg of total RNA was reverse-transcribed using oligo(dT) (IDT, Inc., Coralville, Iowa) and SUPERSCRIPT II reverse transcriptase (Life Technologies Inc.). Specific oligonucleotide primer pairs were incubated with cDNA template for PCR amplification using the Expand High Fidelity PCR System from Roche Diagnostics, GmbH. […] Amplified PCR products were analyzed by agarose gel electrophoresis and ethidium bromide staining. […]

[1] = tested on: traumatic brain injury (blunt head trauma); assay: TUNEL-positive cells in blunt head trauma rat model
Description: UDCA and TUDCA are nontoxic, endogenously produced, bile acids that act both in vitro and in vivo as potent anti-apoptotic agents. In addition to their effects at preventing mitochondrial dysfunction by inhibiting membrane depolarization and channel formation (Rodrigues et al., J Clin Invest 1998;101:2790-2799 and Rodrigues et al., Cell Death Differ 1999;6:842-854), these molecules may also play key regulatory roles in signal transduction pathways by modulating cytosolic calcium levels and in gene expression by regulating transcription (Guicciari et al., Hepatology 2002;35:971-973). […] Administration of TUDCA almost completely abolished the appearance of TUNEL-positive cells, the activation of caspase-3-like proteases, and the histological damage of the peri-ICH region. These findings are consistent with the inhibition of neuronal apoptosis by TUDCA. Further, most neurons can be rescued by TUDCA up to 3 hours, and some up to 6 hours, from the onset of the hemorrhage, consistent with a delayed activation of neuronal cell death. Thus, at least in this model, many cells remain viable for several hours and can be recovered by an anti-apoptotic agent, provided therapy is initiated within this time window. Finally, TUDCA was also markedly effective at reducing apoptosis after brain injury in a blunt head trauma rat model. […]

[2] = tested on: TUNEL-positive (apoptotic) cells in hemisphere ipsilateral to ICH; assay: TUNEL staining of apoptotic cells in ICH rat brain
Description: All animals received humane care in compliance with the institute's guidelines as outlined in “Guide for the Care and Use of Laboratory Animals” prepared by the National Academy of Sciences and published by the National Institutes of Health (NIH publication no. 86-23, revised 1985). Female Sprague-Dawley rats (250-300 grams (g); Harlan Sprague-Dawley, Inc., Indianapolis, Ind.) were anesthesized with an intramuscular injection of a mixture of ketamine and xylazine and set in supine in a Kopf headholder. The right carotid artery, external and internal branches, was exposed and the distal end of the external carotid freed and retracted to line with the internal carotid. A PE-10 polyethylene tube (Becton-Dickinson, Sparks, Md.) was then introduced from the external into the internal carotid artery, and the former was ligated to hold the tube. TUDCA (Calbiochem-Novabiochem Corp., San Diego, Calif.) was dissolved in phosphate buffer, pH 7.4 at 400 milligrams per milliliter (mg/ml). Saline or TUDCA solution (1 milliliter per kilogram body weight (ml/kg bw)) were injected directly into the internal carotid artery, within 5 minutes. Different concentrations of TUDCA (10, 50, 100, and 200 mg/kg bw) were administered 1 hour prior to, or 1, 3, and 6 hours after collagenase injection. The polyethylene tube was finally removed, the end of the external carotid artery cauterized, and the wound closed. To induce stroke injury, the animals were placed in a stereotaxic apparatus and ICH induced by collagenase infusion (Rosenberg et al., Stroke 1990;21:801-807 and Chesney et al., Stroke 1995;26:312-316). In brief, a midline incision was made through the scalp to expose the skull. […]
At 2 days after collagenase infusion, rats were sacrificed for terminal deoxynucleotidyltransferase-mediated dUTP nick end labeling (TUNEL) of apoptotic cells. […] The number of TUNEL-positive cells was counted on a computer screen grid from at least three random fields (400×) within the region adjacent to the hemorrhagic core for each animal.

Compound: C[C@H](CCC(=O)NCCS(=O)(=O)O)[C@H]1CC[C@H]2[C@@H]3[C@@H](O)C[C@@H]4C[C@H](O)CC[C@]4(C)[C@H]3CC[C@]12C [TUDCA, tauroursodeoxycholic acid]
- Bax protein (Bcl-2, Bcl-xL, Bax): returned to contralateral hemisphere values
- Bcl-XL mRNA (RT-PCR, words) (Bcl-2, Bcl-xL, Bax): decreased
- Bcl-xL protein levels (Bcl-2, Bcl-xL, Bax): slightly diminished
- transcriptional activation of Bcl-2 (mRNA, RT-PCR, words) (Bcl-2, Bcl-xL, Bax): further increased
- Bcl-2 protein levels (Bcl-2, Bcl-xL, Bax; dose-response study): remained elevated
- reduction of apoptosis ([1]; 24-h pre-injury treatment plus treatments at head trauma and 24 h later): more than 50%
- number of TUNEL-positive cells per high power field ([1]; 24-h pre-injury treatment plus two post-injury treatments, vehicle approximately 27): 12
- number of apoptotic cells (apoptotic versus total cells) ([2]; 100 mg/kg bw TUDCA 1 hour before collagenase, ipsilateral hemisphere, vehicle almost 30%): approximately 10%
- TUNEL staining versus vehicle-injected animals ([2]; 100 mg/kg bw TUDCA, time-course 1 hour before to 6 hours after collagenase): remained markedly lower
- reduction of apoptosis ([2]; TUDCA at greater dosages (than 100 mg/kg bw), 1 hour before collagenase): > 65%
